Test results taken from ChEMBL document CHEMBL1201862, “PubChem BioAssay data set” (2004).
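A five-concentration, 48-hour dose response in 96-well plates underlies each endpoint, interpolated linearly between surrounding concentrations. Abbreviation: GI50, concentration required for 50% inhibition of growth.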 Active and inactive are the calls of the source. Rule as the data show it: active = GI50 up to about 1.1 µM and inactive = higher.

Experiments:
Assay in all cases: DTP human tumour cell line panel, 48 h
MDA-MB-435 = tested on: MDA-MB-435
HOP-62 = tested on: HOP-62
HCC 2998 = tested on: HCC 2998
LOX IMVI = tested on: LOX IMVI
NCI/ADR-RES = tested on: NCI/ADR-RES
MCF7 = tested on: MCF7
NCI-H23 = tested on: NCI-H23
A498 = tested on: A498
OVCAR-8 = tested on: OVCAR-8
EKVX = tested on: EKVX
HT-29 = tested on: HT-29
NCI-H460 = tested on: NCI-H460
SW-620 = tested on: SW-620
SF-268 = tested on: SF-268
NCI-H226 = tested on: NCI-H226
SK-OV-3 = tested on: SK-OV-3
SK-MEL-2 = tested on: SK-MEL-2
A549 = tested on: A549
T47D = tested on: T47D
OVCAR-4 = tested on: OVCAR-4

SMILES | GI50 (MDA-MB-435) | GI50 (HOP-62) | GI50 (HCC 2998) | GI50 (LOX IMVI) | GI50 (NCI/ADR-RES) | GI50 (MCF7) | GI50 (NCI-H23) | GI50 (A498) | GI50 (OVCAR-8) | GI50 (EKVX) | GI50 (HT-29) | GI50 (NCI-H460) | GI50 (SW-620) | GI50 (SF-268) | GI50 (NCI-H226) | GI50 (SK-OV-3) | GI50 (SK-MEL-2) | GI50 (A549) | GI50 (T47D) | GI50 (OVCAR-4)
C/C(=N\O)c1ccc(Nc2c3ccccc3nc3occc23)cc1 | 0.0246 µM (active) | 0.436 µM (active) | 0.316 µM (active) | 0.29 µM (active) | 0.115 µM (active) | 0.18 µM (active) | 1.36 µM (inactive) | 1.11 µM (active) | 0.531 µM (active) | 5.82 µM (inactive) | 0.199 µM (active) | 0.2 µM (active) | 0.21 µM (active) | 0.514 µM (active) | 2.99 µM (inactive) | 0.421 µM (active) | 0.196 µM (active) | 0.263 µM (active) | 0.553 µM (active) | 0.762 µM (active)
CC(=O)OCC1OC(n2c(N)c(C#N)c(C)c(C#N)c2=S)C(OC(C)=O)C(OC(C)=O)C1OC(C)=O (stereo not given) | > 100 µM (inactive) | > 100 µM (inactive) | > 100 µM (inactive) | > 100 µM (inactive) | > 100 µM (inactive) | > 100 µM (inactive) | > 100 µM (inactive) | > 100 µM (inactive) | > 100 µM (inactive) | > 100 µM (inactive) | > 100 µM (inactive) | > 100 µM (inactive) | > 100 µM (inactive) | > 100 µM (inactive) | > 100 µM (inactive) | > 100 µM (inactive) | > 100 µM (inactive) | > 100 µM (inactive) | > 100 µM (inactive) | > 100 µM (inactive)
CN1CCN(C(=O)CCNC(=O)Cc2ccc(C(=O)c3ccccc3)cc2)CC1 | 22.9 µM (inactive) | > 100 µM (inactive) | 50 µM (inactive) | > 100 µM (inactive) | > 100 µM (inactive) | > 100 µM (inactive) | > 100 µM (inactive) | 83.4 µM (inactive) | > 100 µM (inactive) | > 100 µM (inactive) | > 100 µM (inactive) | > 100 µM (inactive) | 97.3 µM (inactive) | > 100 µM (inactive) | > 100 µM (inactive) | > 100 µM (inactive) | > 100 µM (inactive) | > 100 µM (inactive) | > 100 µM (inactive) | > 100 µM (inactive)
CCCNC(=S)N/N=C(\C)c1ccc(S(=O)(=O)N(C)c2ccccc2)cc1 | > 100 µM (inactive) | 6.34 µM (inactive) | > 100 µM (inactive) | > 100 µM (inactive) | > 89.3 µM (inactive) | 57 µM (inactive) | > 60.8 µM (inactive) | 55.3 µM (inactive) | 24.5 µM (inactive) | 37.8 µM (inactive) | > 100 µM (inactive) | > 100 µM (inactive) | > 100 µM (inactive) | 7.06 µM (inactive) | 29.1 µM (inactive) | 45 µM (inactive) | 40.8 µM (inactive) | 46.3 µM (inactive) | > 67.3 µM (inactive) | > 67.6 µM (inactive)
CN1c2c(O)nc(N)nc2NCC1CCNc1ccc(C(=O)NC(CCC(=O)O)C(=O)O)cc1 (stereo not given) | 104 µM (inactive) | 467 µM (inactive) | 993 µM (inactive) | 4.06 µM (inactive) | 1920 µM (inactive) | 324 µM (inactive) | 1640 µM (inactive) | 948 µM (inactive) | 1160 µM (inactive) | 1260 µM (inactive) | 19.6 µM (inactive) | 35.6 µM (inactive) | 52.4 µM (inactive) | 1110 µM (inactive) | 807 µM (inactive) | 678 µM (inactive) | 1470 µM (inactive) | 242 µM (inactive) | 1860 µM (inactive) | 893 µM (inactive)
CS/C(N)=N/c1cccc2ccccc12 | > 10 µM (inactive) | > 10 µM (inactive) | > 10 µM (inactive) | > 10 µM (inactive) | > 10 µM (inactive) | > 10 µM (inactive) | > 10 µM (inactive) | > 10 µM (inactive) | > 10 µM (inactive) | > 10 µM (inactive) | > 10 µM (inactive) | > 10 µM (inactive) | > 10 µM (inactive) | > 10 µM (inactive) | > 10 µM (inactive) | > 10 µM (inactive) | > 10 µM (inactive) | > 10 µM (inactive) | > 10 µM (inactive) | > 10 µM (inactive)
COC1(C)OC[C@@]2(C)OC(C)C1(C)C2O[Si](C(C)C)(C(C)C)C(C)C (stereo not given in full) | 28.7 µM (inactive) | 28.6 µM (inactive) | 20.1 µM (inactive) | 20.7 µM (inactive) | 22.1 µM (inactive) | 18.4 µM (inactive) | 25.7 µM (inactive) | 66.8 µM (inactive) | 36.8 µM (inactive) | 24.9 µM (inactive) | 28.7 µM (inactive) | 23.7 µM (inactive) | 33.5 µM (inactive) | 31.8 µM (inactive) | 19.5 µM (inactive) | 24.4 µM (inactive) | 21 µM (inactive) | 32.2 µM (inactive) | 27.6 µM (inactive) | 30.3 µM (inactive)
COC(=O)c1cnc(Cl)c([N+](=O)[O-])c1 | 6.22 µM (inactive) | 19.1 µM (inactive) | 8.34 µM (inactive) | 1.93 µM (inactive) | 22.4 µM (inactive) | 2.12 µM (inactive) | 17.3 µM (inactive) | 21.4 µM (inactive) | 2.03 µM (inactive) | 1.8 µM (inactive) | 14.3 µM (inactive) | 14.7 µM (inactive) | 2.03 µM (inactive) | 2.64 µM (inactive) | 16.9 µM (inactive) | 19.3 µM (inactive) | 16.1 µM (inactive) | 20.6 µM (inactive) | 2.09 µM (inactive) | 21.1 µM (inactive)
C=C(Br)CN(C(C)=O)C1CCCCC1 | > 100 µM (inactive) | > 100 µM (inactive) | > 100 µM (inactive) | > 100 µM (inactive) | > 100 µM (inactive) | > 100 µM (inactive) | > 100 µM (inactive) | > 100 µM (inactive) | > 100 µM (inactive) | > 100 µM (inactive) | > 100 µM (inactive) | > 100 µM (inactive) | > 100 µM (inactive) | > 100 µM (inactive) | > 100 µM (inactive) | > 100 µM (inactive) | > 100 µM (inactive) | > 100 µM (inactive) | > 100 µM (inactive) | > 100 µM (inactive)
Cc1ccc2sc3ccc(N)cc3c(=O)c2c1 | 36.9 µM (inactive) | 32.8 µM (inactive) | 37.2 µM (inactive) | 28.1 µM (inactive) | 53.2 µM (inactive) | 26.5 µM (inactive) | 81.8 µM (inactive) | 22.4 µM (inactive) | > 100 µM (inactive) | 21.1 µM (inactive) | 30.2 µM (inactive) | 41.3 µM (inactive) | 62.1 µM (inactive) | > 100 µM (inactive) | 82.4 µM (inactive) | 41.6 µM (inactive) | 53.6 µM (inactive) | 54.2 µM (inactive) | 14.9 µM (inactive) | 63.5 µM (inactive)
CC(C)(C)[Si](C)(C)OCC1OC(n2ccc(=O)[nH]c2=O)C(O[Si](C)(C)C(C)(C)C)/C1=C/C#N (stereo not given) | 3.94 µM (inactive) | 12.5 µM (inactive) | 5.48 µM (inactive) | 5 µM (inactive) | 4.01 µM (inactive) | 3.96 µM (inactive) | 5.89 µM (inactive) | 10 µM (inactive) | 6.65 µM (inactive) | 24.4 µM (inactive) | 3.88 µM (inactive) | 4.41 µM (inactive) | 0.838 µM (active) | 6.56 µM (inactive) | 16.8 µM (inactive) | 1.79 µM (inactive) | 0.757 µM (active) | 4.18 µM (inactive) | 3.93 µM (inactive) | > 29.2 µM (inactive)
CN(C)CCCNC(=O)c1c(O)c2ccccc2[nH]c1=O | > 100 µM (inactive) | > 100 µM (inactive) | > 100 µM (inactive) | > 100 µM (inactive) | 88.5 µM (inactive) | > 100 µM (inactive) | > 100 µM (inactive) | > 100 µM (inactive) | > 100 µM (inactive) | > 100 µM (inactive) | > 100 µM (inactive) | > 100 µM (inactive) | > 100 µM (inactive) | 83.2 µM (inactive) | > 100 µM (inactive) | > 100 µM (inactive) | > 100 µM (inactive) | > 100 µM (inactive) | > 100 µM (inactive) | > 100 µM (inactive)
COC1CC(n2ccc(=O)[nH]c2=O)OC1CO (stereo not given) | > 100 µM (inactive) | > 100 µM (inactive) | > 100 µM (inactive) | > 100 µM (inactive) | > 100 µM (inactive) | < 0.01 µM (active) | > 100 µM (inactive) | > 100 µM (inactive) | > 100 µM (inactive) | > 100 µM (inactive) | > 100 µM (inactive) | > 100 µM (inactive) | > 100 µM (inactive) | > 100 µM (inactive) | > 100 µM (inactive) | > 100 µM (inactive) | > 100 µM (inactive) | > 100 µM (inactive) | > 100 µM (inactive) | > 100 µM (inactive)
CCCCC(Sc1cc(Cl)c(C)cc1S(=O)(=O)Nc1nc(N)n[nH]1)C(=O)OC (stereo not given) | > 10 µM (inactive) | > 10 µM (inactive) | > 10 µM (inactive) | > 10 µM (inactive) | > 10 µM (inactive) | > 10 µM (inactive) | > 10 µM (inactive) | > 10 µM (inactive) | > 10 µM (inactive) | > 10 µM (inactive) | > 10 µM (inactive) | > 10 µM (inactive) | > 10 µM (inactive) | > 10 µM (inactive) | > 10 µM (inactive) | > 10 µM (inactive) | > 10 µM (inactive) | > 10 µM (inactive) | > 10 µM (inactive) | > 10 µM (inactive)
